The values that follow come from ChEMBL document CHEMBL2062514 (J Med Chem, 2012).

In experiment [1] the target is T1, Adenosine receptor A3 (Homo sapiens) (UniProt P0DMS8).
T1 sequence (whole entry): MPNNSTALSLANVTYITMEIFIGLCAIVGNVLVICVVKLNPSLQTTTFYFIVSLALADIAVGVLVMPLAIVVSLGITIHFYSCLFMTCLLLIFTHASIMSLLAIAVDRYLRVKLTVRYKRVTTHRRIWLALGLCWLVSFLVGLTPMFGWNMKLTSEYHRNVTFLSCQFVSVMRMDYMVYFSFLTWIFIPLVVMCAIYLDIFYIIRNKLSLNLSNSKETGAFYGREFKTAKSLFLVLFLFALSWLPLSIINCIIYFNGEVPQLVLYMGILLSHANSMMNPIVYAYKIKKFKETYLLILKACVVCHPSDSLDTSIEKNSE
Description: Agonist activity at human recombinant adenosine A3 receptor expressed in CHO cells assessed as inhibition of forskolin-stimulated cAMP production at 10 uM incubated for 30 mins prior to forskolin-stimulation measured after 15 mins by enzyme immunoassay relative to NECA. Type of experiment: functional, cell-based. For orientation: Changes in cAMP serve as a functional read-out for many G protein-coupled receptors.

Experiment [2] concerns the target T2, Adenosine receptor A1 (Mus musculus) (UniProt Q60612).
T2 sequence (whole entry): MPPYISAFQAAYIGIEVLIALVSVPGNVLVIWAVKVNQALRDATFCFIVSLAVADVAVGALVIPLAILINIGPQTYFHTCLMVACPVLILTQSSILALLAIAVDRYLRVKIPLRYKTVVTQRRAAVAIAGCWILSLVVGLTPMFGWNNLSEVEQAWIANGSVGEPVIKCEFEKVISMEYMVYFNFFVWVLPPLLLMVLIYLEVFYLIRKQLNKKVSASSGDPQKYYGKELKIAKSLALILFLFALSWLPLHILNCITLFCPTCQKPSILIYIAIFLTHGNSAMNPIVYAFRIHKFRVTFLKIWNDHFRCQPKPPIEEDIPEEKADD
Description: Displacement of from mouse adenosine A1 receptor expressed in HEK293 cells at 10 uM after 60 mins by liquid scintillation counting. The arrangement: reference not given here.

Experiment [3] addresses T3, Adenosine receptor A2b (Homo sapiens) (UniProt P29275).
T3 sequence (whole entry): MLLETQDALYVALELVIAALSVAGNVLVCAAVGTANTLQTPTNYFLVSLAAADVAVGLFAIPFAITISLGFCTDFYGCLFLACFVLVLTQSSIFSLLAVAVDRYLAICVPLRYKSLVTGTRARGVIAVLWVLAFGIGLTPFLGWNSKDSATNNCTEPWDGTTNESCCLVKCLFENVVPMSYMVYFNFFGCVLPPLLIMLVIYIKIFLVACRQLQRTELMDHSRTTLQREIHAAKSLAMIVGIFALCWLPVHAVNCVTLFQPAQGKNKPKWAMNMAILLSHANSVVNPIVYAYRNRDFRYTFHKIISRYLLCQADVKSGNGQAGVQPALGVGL
Description: Agonist activity at human adenosine A2B receptor by cAMP accumulation assay relative to NECA. It is filed as functional.

Experiment [4] concerns the target T4, Adenosine receptor A3 (Mus musculus, UniProt Q61618).
T4 sequence (Q61618 whole entry): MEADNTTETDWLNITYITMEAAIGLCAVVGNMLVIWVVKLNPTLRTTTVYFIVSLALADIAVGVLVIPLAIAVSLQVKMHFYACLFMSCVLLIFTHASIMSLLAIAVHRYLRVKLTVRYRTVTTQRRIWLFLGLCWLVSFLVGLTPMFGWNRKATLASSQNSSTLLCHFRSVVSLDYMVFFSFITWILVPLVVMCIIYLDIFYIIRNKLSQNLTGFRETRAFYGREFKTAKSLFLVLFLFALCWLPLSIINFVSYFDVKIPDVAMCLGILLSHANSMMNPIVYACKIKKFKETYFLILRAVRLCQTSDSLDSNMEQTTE
The experiment is described as follows: Displacement of [125I]I-AB-MECA from mouse adenosine A3 receptor expressed in HEK293 cells after 60 mins by liquid scintillation counting.

The target of experiment [5] is T5, Adenosine receptor A1 (Homo sapiens) (UniProt P30542).
T5 sequence (whole entry): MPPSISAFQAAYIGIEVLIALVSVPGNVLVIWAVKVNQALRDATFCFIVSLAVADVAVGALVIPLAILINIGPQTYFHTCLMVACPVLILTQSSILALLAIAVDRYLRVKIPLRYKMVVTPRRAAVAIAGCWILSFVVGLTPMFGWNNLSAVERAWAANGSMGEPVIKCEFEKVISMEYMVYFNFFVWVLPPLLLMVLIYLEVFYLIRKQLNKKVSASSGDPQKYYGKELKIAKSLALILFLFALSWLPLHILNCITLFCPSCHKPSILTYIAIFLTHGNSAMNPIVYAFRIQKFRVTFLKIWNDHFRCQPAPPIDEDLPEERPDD
Description: Displacement of [3H]R-PIA from human recombinant adenosine A1 receptor expressed in CHO cells at 10 uM after 60 mins by liquid scintillation counting. It is filed as cell-based. A general note: In a radioligand displacement assay an active substance lowers the binding of a labelled ligand.

Experiment [6] concerns the target Adenosine receptor A2a (Mus musculus) (UniProt Q60613). The experiment is described as follows: Displacement of [3H]CGS21680 from mouse adenosine A2A receptor expressed in HEK293 cells at 10 uM after 60 mins by liquid scintillation counting.
In experiment [7] the target is T6, Adenosine receptor A2a (Homo sapiens, UniProt P29274). Description: Displacement of [3H]CGS21680 from human recombinant adenosine A2A receptor expressed in HEK293 cells after 60 mins by liquid scintillation counting. It is filed as cell-based.
Experiment [8] deals with T6, Adenosine receptor A2a. The experiment is described as follows: Displacement of [3H]CGS21680 from human recombinant adenosine A2A receptor expressed in HEK293 cells at 10 uM after 60 mins by liquid scintillation counting. It is filed as cell-based.
Experiment [9] concerns the target T7, Adenosine receptor A3 (Homo sapiens, UniProt P0DMS8).
T7 sequence (P0DMS8 whole entry): T1 sequence (whole entry)
The experiment is described as follows: Displacement of [3H]I-AB-MECA from human recombinant adenosine A3 receptor expressed in CHO cells after 60 mins by gamma counting. It is filed as cell-based.

The nature of experiment [10]: Selectivity ratio of Ki for mouse adenosine A3 receptor to Ki for human recombinant adenosine A3 receptor.
In experiment [11] the target is T8, Adenosine receptor A1 (Mus musculus, UniProt Q60612).
T8 sequence (Q60612 whole entry): T2 sequence (whole entry)
Description: Displacement of [125I]I-AB-MECA from mouse adenosine A1 receptor expressed in HEK293 cells after 60 mins by liquid scintillation counting.

In experiment [12] the target is T9, Adenosine receptor A1 (Homo sapiens, UniProt P30542).
T9 sequence (P30542 whole entry): T5 sequence (whole entry)
Description: Displacement of [3H]R-PIA from human recombinant adenosine A1 receptor expressed in CHO cells after 60 mins by liquid scintillation counting. Type of experiment: cell-based.

T6 sequence (P29274 whole entry): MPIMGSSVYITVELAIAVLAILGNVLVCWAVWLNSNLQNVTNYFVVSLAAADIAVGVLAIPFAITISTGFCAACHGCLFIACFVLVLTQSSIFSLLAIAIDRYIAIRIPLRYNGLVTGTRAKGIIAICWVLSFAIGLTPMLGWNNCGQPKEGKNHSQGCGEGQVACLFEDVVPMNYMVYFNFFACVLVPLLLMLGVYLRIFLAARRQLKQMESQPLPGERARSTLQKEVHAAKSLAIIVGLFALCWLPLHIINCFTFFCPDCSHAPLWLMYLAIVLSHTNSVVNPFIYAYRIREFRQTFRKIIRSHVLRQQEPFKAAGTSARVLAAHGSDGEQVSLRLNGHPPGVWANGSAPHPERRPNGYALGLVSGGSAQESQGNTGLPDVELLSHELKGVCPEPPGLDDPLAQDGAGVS
Sequence of Adenosine receptor A2a (Mus musculus) (Q60613 whole entry): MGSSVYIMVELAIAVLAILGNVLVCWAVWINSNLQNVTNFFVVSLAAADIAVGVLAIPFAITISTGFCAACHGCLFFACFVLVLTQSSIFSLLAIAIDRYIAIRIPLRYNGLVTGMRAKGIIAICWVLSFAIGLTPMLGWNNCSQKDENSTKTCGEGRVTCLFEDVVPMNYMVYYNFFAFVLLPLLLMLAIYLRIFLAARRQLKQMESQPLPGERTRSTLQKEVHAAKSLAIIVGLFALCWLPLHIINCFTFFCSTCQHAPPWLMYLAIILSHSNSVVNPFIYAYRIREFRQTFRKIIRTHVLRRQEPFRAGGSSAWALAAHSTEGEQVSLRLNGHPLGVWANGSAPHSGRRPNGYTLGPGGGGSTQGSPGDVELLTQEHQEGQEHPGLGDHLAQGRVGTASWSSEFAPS

Broadly, the inhibition is the relative decrease from the control value, in per cent. The Ki is a dissociation constant, usually derived from enzyme kinetics or from competition with a known ligand. Turning to `CNC(=O)[C@@]12C[C@@H]1[C@@H](n1cnc3c(NCc4cccc(Cl)c4)nc(C#Cc4cccc(Cl)c4)nc31)[C@H](O)[C@@H]2O`, the results for the Efficacy in experiment [1] and in experiment [3] were 91.5% and 20%, respectively. The inhibition was found to be 35% in experiment [2], 4% in [5] and 55% in [6]. Moreover, the Ki in experiment [4] amounted to 2.39 nM; in experiment [7], 1740 nM.

Regarding `CNC(=O)[C@@]12C[C@@H]1[C@@H](n1cnc3c(NC)nc(C#Cc4ccc(C(C)=O)cc4)nc31)[C@H](O)[C@@H]2O`, the Efficacy in [1] was found to be 87.4%; in experiment [3] it was 20%. The inhibition in experiment [5] stood at 15%. Moreover, the Ki in experiment [7] is 5300 nM.

As for `CNC(=O)[C@@]12C[C@@H]1[C@@H](n1cnc3c(NCc4cccc(Cl)c4)nc(C#Cc4cc5cccc6ccc7cccc4c7c65)nc31)[C@H](O)[C@@H]2O`, the Efficacy in experiment [1] was 97.1%. Moreover, the values for the inhibition in experiment [5] and in experiment [8] were 11% and 4%, respectively. For the same molecule, the Ki in experiment [9] was 660 nM.

As for `CNC(=O)[C@@]12C[C@@H]1[C@@H](n1cnc3c(NC)nc(C#Cc4ccc(F)cc4)nc31)[C@H](O)[C@@H]2O`, the Efficacy in experiment [1] was 80.3%. The inhibition in experiment [2] stood at 29%; in [5], 21%; in experiment [6] it was 0%; in experiment [8] it was 19%. The Ki in experiment [4] amounted to 37.7 nM. Also, the Ratio Ki in [10] came out at 70.

`CNC(=O)[C@@]12C[C@@H]1[C@@H](n1cnc3c(NCc4cccc(Cl)c4)nc(C#Cc4ccc5ccc6cccc7ccc4c5c67)nc31)[C@H](O)[C@@H]2O`: the Efficacy is 77.8% in experiment [1] and 20% in experiment [3]. Moreover, the inhibition was 8% in [2], 8% in experiment [5] and 64% in experiment [6]. In addition, the Ki amounted to 47.6 nM in experiment [4] and 3110 nM in experiment [7].

For the molecule `CNC(=O)[C@@]12C[C@@H]1[C@@H](n1cnc3c(NCc4cccc(Cl)c4)nc(C#Cc4ccc(N)cc4)nc31)[C@H](O)[C@@H]2O`, the Efficacy in experiment [1] is 76.6%. Moreover, the figures for the Ki in [11], in [4] and in experiment [12] were 261 nM, 0.82 nM and 1520 nM, respectively. For the same molecule, the inhibition in experiment [6] amounted to 5%; in [8], 44%.
